Laboratory results taken from US20230398130A1, “METHODS AND COMPOSITIONS FOR DIFFERENTIATING STEM CELLS” (Massachusetts Institute of Technology, priority 2020, published 2023).

Key:
[1] = tested on: ISC-enriched organoids; test: Primary screen, 384-well 2.5-D organoid differentiation (ENR+CD, 6 days): basal lysozyme secretion (LYZ.NS); type: cell-based, murine; details: for Dose.FC.LYZ.NS (log 2 fold change) / Dose.FC.LYZ.NS (log 2 fold change, basal lysozyme secretion): vs plate median; for Dose.FC.LYZ.NS: ENR+CD, 6 days, FC vs plate median; for Z.LYZ.NS: standard z score of FC
Description: (§1) High-throughput screening.

[2] = tested on: ISC-enriched organoids; test: Primary screen, 384-well 2.5-D organoid differentiation (ENR+CD, 6 days, Target Selective Inhibitor Library, vs whole-plate median): ATP (CellTiter-Glo 3D, CTG); details: for Dose.FC.CTG (log 2 fold change) / Dose.FC.CTG (log 2 fold change, ATP): vs plate median; for Dose.FC.CTG: ENR+CD, 6 days, FC vs plate median; for Z.CTG: standard z score of FC
[3] = tested on: ISC-enriched organoids; test: Primary screen, 384-well 2.5-D organoid differentiation (ENR+CD, 6 days): carbachol-induced lysozyme secretion (LYZ.S); type: cell-based, murine; details: for Dose.FC.LYZ.S (log 2 fold change): primary screen; for Dose.FC.LYZ.S (log 2 fold change) / Dose.FC.LYZ.S (log 2 fold change, carbachol-induced lysozyme secretion): vs plate median; for Dose.FC.LYZ.S: ENR+CD, 6 days, FC vs plate median
Description: as §1

SMILES	Z.LYZ.NS (standard z score) ([1]; dose 0.08 uM)	Dose.FC.LYZ.NS (log 2 fold change, basal lysozyme secretion) ([1]; dose 0.08 uM)	Z.LYZ.NS (standard z score) ([1]; dose 0.40 uM)	Dose.FC.LYZ.NS (log 2 fold change, basal lysozyme secretion) ([1]; dose 0.40 uM)	Z.LYZ.NS (standard z score) ([1]; dose 2.00 uM)	Dose.FC.LYZ.NS (log 2 fold change, basal lysozyme secretion) ([1]; dose 2.00 uM)	Z.LYZ.NS (standard z score) ([1]; dose 10.00 uM)	Dose.FC.LYZ.NS (log 2 fold change, basal lysozyme secretion) ([1]; dose 10.00 uM)	Z.CTG (standard z score) ([2]; dose 0.08 uM)	Dose.FC.CTG (log 2 fold change, ATP) ([2]; dose 0.08 uM)	Z.CTG (standard z score) ([2]; dose 0.40 uM)	Dose.FC.CTG (log 2 fold change, ATP) ([2]; dose 0.40 uM)	Z.CTG (standard z score) ([2]; dose 2.00 uM)	Dose.FC.CTG (log 2 fold change, ATP) ([2]; dose 2.00 uM)	Z.CTG (standard z score) ([2]; dose 10.00 uM)	Dose.FC.CTG (log 2 fold change, ATP) ([2]; dose 10.00 uM)	Dose.FC.LYZ.S (log 2 fold change, carbachol-induced lysozyme secretion) ([3]; dose 0.08 uM)	Dose.FC.LYZ.S (log 2 fold change, carbachol-induced lysozyme secretion) ([3]; dose 0.40 uM)	Dose.FC.LYZ.S (log 2 fold change, carbachol-induced lysozyme secretion) ([3]; dose 2.00 uM)	Dose.FC.LYZ.S (log 2 fold change, carbachol-induced lysozyme secretion) ([3]; dose 10.00 uM)	further results
Oc1ccc(Nc2nc(-c3ccc(Cl)cc3)cs2)cc1 [SKI II]	–	–	–	–	–	–	–	–	–	–	–	–	–	–	–	–	–	–	–	–	Z.LYZ.NS (standard z score) ([1]; Dose 0.08 uM, primary screen): 0.683; Dose.FC.LYZ.NS (log 2 fold change) ([1]; Dose 0.08 uM, primary screen): 0.078; Z.LYZ.NS (standard z score) ([1]; Dose 0.40 uM, primary screen): 1.906; Dose.FC.LYZ.NS (log 2 fold change) ([1]; Dose 0.40 uM, primary screen): 0.219; Z.LYZ.NS (standard z score) ([1]; Dose 2.00 uM, primary screen): 0.647; Dose.FC.LYZ.NS (log 2 fold change) ([1]; Dose 2.00 uM, primary screen): 0.074; Z.LYZ.NS (standard z score) ([1]; Dose 10.00 uM, primary screen): −1.362; Dose.FC.LYZ.NS (log 2 fold change) ([1]; Dose 10.00 uM, primary screen): −0.156; Z.CTG (standard z score) ([2]; Dose 0.08 uM, primary screen): 0.699; Dose.FC.CTG (log 2 fold change) ([2]; Dose 0.08 uM, primary screen): 0.293; Z.CTG (standard z score) ([2]; Dose 0.40 uM, primary screen): 0.531; Dose.FC.CTG (log 2 fold change) ([2]; Dose 0.40 uM, primary screen): 0.222; Z.CTG (standard z score) ([2]; Dose 2.00 uM, primary screen): 0.473; Dose.FC.CTG (log 2 fold change) ([2]; Dose 2.00 uM, primary screen): 0.198; Z.CTG (standard z score) ([2]; Dose 10.00 uM, primary screen): −0.802; Dose.FC.CTG (log 2 fold change) ([2]; Dose 10.00 uM, primary screen): −0.336; Dose.FC.LYZ.S (log 2 fold change) ([3]; Dose 0.08 uM): 0.090; Dose.FC.LYZ.S (log 2 fold change) ([3]; Dose 0.40 uM): 0.123; Dose.FC.LYZ.S (log 2 fold change) ([3]; Dose 2.00 uM): 0.061; Dose.FC.LYZ.S (log 2 fold change) ([3]; Dose 10.00 uM): −0.191
O=C(c1cncc(Br)c1)N1CCC(N2CCCC2)CC1 [UNC669]	0.578	0.066	−0.048	−0.006	0.606	0.070	0.249	0.029	−0.226	−0.095	0.228	0.096	−0.561	−0.235	0.174	0.073	0.047	−0.029	0.025	0.002	–
Nc1ncnc2n[nH]c(Nc3ccc(F)cc3)c12 [CGP57380]	–	–	–	–	–	–	–	–	–	–	–	–	–	–	–	–	–	–	–	–	Dose.FC.LYZ.NS ([1]; Dose 0.08 uM): 0.218 log 2 fold change; Z.LYZ.NS ([1]; Dose 0.08 uM): 1.900; Dose.FC.LYZ.NS ([1]; Dose 0.40 uM): −0.041 log 2 fold change; Z.LYZ.NS ([1]; Dose 0.40 uM): −0.354; Dose.FC.LYZ.NS ([1]; Dose 2.00 uM): −0.055 log 2 fold change; Z.LYZ.NS ([1]; Dose 2.00 uM): −0.477; Dose.FC.LYZ.NS ([1]; Dose 10.00 uM): −0.037 log 2 fold change; Z.LYZ.NS ([1]; Dose 10.00 uM): −0.321; Dose.FC.CTG ([2]; Dose 0.08 uM): 0.108 log 2 fold change; Z.CTG ([2]; Dose 0.08 uM): 0.258; Dose.FC.CTG ([2]; Dose 0.40 uM): −0.293 log 2 fold change; Z.CTG ([2]; Dose 0.40 uM): −0.700; Dose.FC.CTG ([2]; Dose 2.00 uM): −0.460 log 2 fold change; Z.CTG ([2]; Dose 2.00 uM): −1.098; Dose.FC.CTG ([2]; Dose 10.00 uM): 0.055 log 2 fold change; Z.CTG ([2]; Dose 10.00 uM): 0.132; Dose.FC.LYZ.S ([3]; Dose 0.08 uM): 0.096 log 2 fold change; Dose.FC.LYZ.S ([3]; Dose 0.40 uM): 0.054 log 2 fold change; Dose.FC.LYZ.S ([3]; Dose 2.00 uM): −0.095 log 2 fold change; Dose.FC.LYZ.S ([3]; Dose 10.00 uM): −0.088 log 2 fold change
CCCS(=O)(=O)Nc1ccc(F)c(C(=O)c2c[nH]c3ncc(-c4ccc(Cl)cc4)cc23)c1F [Vemurafenib (PLX4032, RG7204)]	0.786	0.090	0.462	0.053	0.411	0.047	0.263	0.030	0.297	0.124	−0.195	−0.082	−0.014	−0.006	0.073	0.030	0.120	0.150	0.055	0.022	–
